Reference: the supplement of paper PMC10307832

Key:
Experiment in all cases: relative viability (nuclei count vs DMSO), 5 days (fraction); higher = more cells survive
[1] = compound: CO[C@@H]1[C@H](N(C)C(=O)c2ccccc2)C[C@H]2O[C@]1(C)n1c3ccccc3c3c4c(c5c6ccccc6n2c5c31)C(=O)NC4 [Midostaurin] + Nc1ncn([C@H]2C[C@H](O)[C@@H](CO)O2)c(=O)n1 [Decitabine] (partner 2 µM)
Summary of the method: (§1)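 For relative viability, nuclei counts in treated wells were divided by those in vehicle wells. Lung cancer cell lines had been pin-tool dosed in 1536-well plates the day after seeding and cultured for 5 days, then fixed and stained in one step (final 0.05% Triton X-100, 1% formaldehyde, 1 ug/ml Hoechst) and imaged at 4×. Doses were one drug alone or a fixed anchor-drug dose plus five library-drug doses (not always all listed) in √10 steps, and values are duplicate-plate medians.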

[2] = compound: CO[C@@H]1[C@H](N(C)C(=O)c2ccccc2)C[C@H]2O[C@]1(C)n1c3ccccc3c3c4c(c5c6ccccc6n2c5c31)C(=O)NC4 [Midostaurin] + Cc1nc(Nc2ncc(C(=O)Nc3c(C)cccc3Cl)s2)cc(N2CCN(CCO)CC2)n1 [Dasatinib] (partner 0.075 µM)
Summary of the method: as §1

[3] = compound: COc1cc(-c2nn([C@H]3CC[C@H](N4CCN(C(C)=O)CC4)CC3)c3ncnc(N)c23)ccc1NC(=O)c1cc2ccccc2n1C + CC(=O)Nc1cccc(-n2c(=O)n(C3CC3)c(=O)c3c(Nc4ccc(I)cc4F)n(C)c(=O)c(C)c32)c1 [Trametinib] (partner 0.02 µM)
Summary of the method: as §1

[4] = compound: CO[C@@H]1[C@H](N(C)C(=O)c2ccccc2)C[C@H]2O[C@]1(C)n1c3ccccc3c3c4c(c5c6ccccc6n2c5c31)C(=O)NC4 [Midostaurin] + C[C@@H](Oc1cc(-c2cnn(C3CCNCC3)c2)cnc1N)c1c(Cl)ccc(F)c1Cl [Crizotinib] (partner 1 µM)
Summary of the method: as §1

[5] = compound: CO[C@@H]1[C@H](N(C)C(=O)c2ccccc2)C[C@H]2O[C@]1(C)n1c3ccccc3c3c4c(c5c6ccccc6n2c5c31)C(=O)NC4 [Midostaurin] + COc1cccc2cc(-c3nc([C@H]4CC[C@H](C(=O)O)CC4)n4ncnc(N)c34)[nH]c12 [OSI-027] (partner 0.5 µM)
Summary of the method: as §1

Cell Line	relative viability ([1]; first compound 0.01 µM)	relative viability ([1]; first compound 0.03162 µM)	relative viability ([1]; first compound 0.1 µM)	relative viability ([1]; first compound 0.3162 µM)	relative viability ([2]; first compound 0.01 µM)	relative viability ([2]; first compound 0.03162 µM)	relative viability ([2]; first compound 0.1 µM)	relative viability ([2]; first compound 0.3162 µM)	relative viability ([3]; first compound 0.0128 µM)	relative viability ([3]; first compound 0.04048 µM)	relative viability ([3]; first compound 0.128 µM)	relative viability ([3]; first compound 1.28 µM)	relative viability ([4]; first compound 0.01 µM)	relative viability ([4]; first compound 0.03162 µM)	relative viability ([4]; first compound 0.1 µM)	relative viability ([4]; first compound 0.3162 µM)	relative viability ([5]; first compound 0.01 µM)	relative viability ([5]; first compound 0.03162 µM)	relative viability ([5]; first compound 0.1 µM)	relative viability ([5]; first compound 0.3162 µM)
NCI-H1915	0.264	0.26	0.255	0.255	0.359	0.334	0.29	0.331	0.333	0.141	0.301	0.241	0.889	0.889	0.979	0.94	0.623	0.555	0.568	0.597
NCI-H2023	0.226	0.273	0.223	0.201	0.585	0.691	0.539	0.443	0.402	0.445	0.585	0.454	0.642	0.613	0.584	0.499	0.426	0.385	0.41	0.302
COR-L 105	0.673	0.633	0.622	0.605	0.351	0.396	0.385	0.285	0.481	0.489	0.412	0.298	0.835	0.738	0.692	0.698	0.793	0.548	0.607	0.551
RERF-LC-KJ	0.748	0.75	0.724	0.658	0.848	0.934	0.876	0.709	0.844	0.818	0.867	0.749	0.892	0.764	0.813	0.811	0.622	0.614	0.673	0.663
LXF-289	0.394	0.339	0.342	0.401	0.21	0.173	0.174	0.124	0.78	0.468	0.692	0.811	0.815	0.78	0.764	0.831	0.819	0.864	0.842	0.743
PC-14	0.184	0.204	0.227	0.114	0.251	0.253	0.218	0.182	0.819	0.721	0.663	0.569	0.903	0.882	0.832	0.907	0.92	0.811	0.875	1.02
NCI-H650	0.339	0.311	0.321	0.334	0.401	0.406	0.385	0.315	0.993	0.501	1.15	0.879	0.574	0.748	0.773	0.444	0.439	0.455	0.507	0.456
NCI-H1666	0.719	0.684	0.777	0.716	0.864	0.709	0.716	0.772	0.899	0.835	0.819	0.918	0.874	1.12	0.858	0.787	0.8	0.794	0.883	0.903
NCI-H2085	0.54	0.525	0.607	0.523	0.29	0.273	0.26	0.236	0.611	0.643	0.405	0.334	0.769	0.805	0.814	0.582	0.752	0.655	0.837	0.461
NCI-H1734	0.508	0.499	0.486	0.521	0.404	0.632	0.477	0.338	0.721	0.445	0.664	0.598	0.653	0.691	0.705	0.647	0.57	0.589	0.632	0.552
NCI-H2126	0.549	0.644	0.612	0.613	0.623	0.502	0.596	0.644	0.55	0.497	0.508	0.448	1.02	0.951	0.965	1.04	0.808	0.545	0.685	0.666
EMC-BAC-2	0.922	0.933	0.897	0.818	0.358	0.372	0.273	0.248	0.901	0.537	0.834	1.02	0.704	0.754	0.647	0.696	0.346	0.31	0.336	0.218
NCI-H1993	0.541	0.607	0.693	0.576	0.65	0.608	0.668	0.419	0.504	0.489	0.562	0.481	0.879	0.762	1.06	0.893	0.519	0.546	0.54	0.576
NCI-H520	0.498	0.501	0.514	0.427	0.176	0.178	0.272	0.203	0.606	0.354	0.55	0.361	0.69	0.668	0.691	0.525	0.293	0.24	0.403	0.359
NCI-H647	0.405	0.433	0.346	0.374	0.181	0.209	0.134	0.103	0.543	0.265	0.333	0.169	1.06	0.802	0.832	0.416	0.637	0.652	0.779	0.753
